Experimental findings from patent US6762164B2, “Use of 3-position cyclosporin derivatives for hair growth” (LG Household & Health Care Ltd., priority 2001, dated 2004) are described below.

The subject of the test is Female C57BL/6 mice. Briefly: Test for hair growth promoting effect: hair regrowth on shaved backs of mice. Type of test: in vivo. To be noted: shaved back, 100 μl (conc. 0.1% w/v) applied once a day for 30 days, visual approach. The protocol:
Female C57BL/6 mice of ages 6 to 7 weeks were utilized. After removing hairs on the middle of the back with an electric shaver, the mice were weighed and randomly assigned to the test groups with an even distribution of weights. The mice were given one day for adaptation. From the next day, mice were applied once a day on their backs with cyclosporin A and the cyclosporin A derivatives (Compounds 1 to 7) prepared by HPLC in Example 1 in amounts of 100 μl (conc. 0.1% w/v) for 30 days. The results were determined by visual approach, in terms of degrees of hair regrowth. With respect to respective hair-removed areas, rates of new hair growth were examined and compared.

As for “[D-2-(methylamino)hexa-4-ynoyl^3] cyclosporin A [Compound 3]”, the “Area rate of hair regrowth (%)” value is listed as 95%. For “[D-2-(methylamino)pent-4-ynoyl^3] cyclosporin A [Compound 4]” the value was 96%.

Regarding “[D-2-(methylthio)-Sar^3] cyclosporin A [Compound 5]”, the “Area rate of hair regrowth (%)” value is on record as 93%. Turning to “[N-methyl-D-Abu3] cyclosporin A [Compound 1]”, the “Area rate of hair regrowth (%)” value is recorded as 95%. Consider “[N-methyl-D-Nva^3] cyclosporin A [Compound 2]”, for which the “Area rate of hair regrowth (%)” value turned out to be 91%. To “[N-methyl-D-Ser^3] cyclosporin A [Compound 7]” belongs 90%; to “[N-methyl-O-propenyl-D-Ser^3] cyclosporin A [Compound 6]”, 94%; to cyclosporin A [reference compound], 91%.
